Like-named read-outs stand apart in the source and are kept apart here. Marks after values point to notes of the source that are not given here.
Columns and labels:
[1] = system: HL60 leukemia cells; design: method as in PMID 22553960; conditions: cited from earlier work
[2] = system: A549 cell monolayers; design: method as in PMID 22553960; conditions: cited from earlier work
[3] = system: HeLa cells; conditions: irradiation dose of 5 J/cm^2; cited from earlier work
Description: It is important to highlight that a direct comparison between the other reported PIs is difficult to make because of the diversity of conditions used to determine PI values. Because PI is influenced by a range of factors, including the cell type extent of permeability of a given agent and the irradiation dose.[72] […] Based on control studies with untreated CHO, A549, and HPAC cell monolayers, we selecte ...

[4] = system: A549 cells; conditions: read-out: IC50, dark toxicity; A549, 24 h incubation in the dark, alamar blue added immediately, no recovery, N=3
Procedure: (§1) The alamar blue assay (Invitrogen) was used to assess the viability of A549, CHO, and HPAC cell monolayers treated with the Ru(II) probes, Ru-bqp-ester, Ru-bqp-MPP, Ru-bqp-R8. CHO, A549, and 2D HPAC cells were seeded in a 96-well plate (Nunc, flat bottom cell culture treated) at 1 × 10^4 cells per well, i.e., in 100 μL media for 24 h at 37 °C with 5% CO2. Ru-bqp-ester, Ru-bqp-R8, and Ru-bqp-MPP were added for 24 h at 37 °C and 5% CO2 in the absence of light. The alamar blue (Resazurin) assay was performed to measure cell viability by replacing the test solution with 100 μL of a 10% v/v media/resazurin solution and incubating for 5 h at 37 °C in the absence of light. Absorbance was measured using a BMG Labtech ClarioStar (plus) plate reader at 570 and 600 nm (corrected for background subtraction). Cell viability is presented as a percentage (%) compared to untreated control wells.
(§2) The alamar blue (Resazurin) assay was used to assess cell viability of CHO, A549, and HPAC cell monolayers after 24 h incubation in the dark with the complexes and conjugates. In the presence of metabolically active cells, the alamar blue dye is reduced to resorufin and changes from navy blue to a pink color depending on the number of viable cells. Thus, this assay can be used as a simple direct indicator of cell viability. […]

[5] = system: CHO cells; type: cell-based, Chinese hamster; conditions: 24 h incubation in the dark, alamar blue added immediately, no recovery, N=3, read-out: IC50, dark toxicity
Procedure: as §1, §2

[6] = system: HPAC cell monolayers; type: cell-based, human; conditions: 24 h incubation in the dark, alamar blue added immediately, no recovery, N=3, read-out: IC50, dark toxicity
Procedure: as §1, §2

[7] = system: A549 cells
Procedure: (§3) All cell monolayers were prepared as described above for the phototoxicity assay. A549 and CHO cells were treated at varying concentrations of the complexes and incubated for 30 min in the absence of light, HPAC were incubated for 2 h to allow uptake. A 470 nm blue light LED array was used to irradiate the cells in the wells at a total dose of 17 ± 1.64 J/cm^2 (2 h at 2.37 ± 0.23 mW/cm^2). A dark control plate was performed alongside all phototoxicity plates. Irradiation conditions were tested on untreated cells to confirm cells remained viable at this dose before any experiments were performed and each phototoxicity plate included untreated test wells for cell viability comparison. All viability assays were performed in triplicate.
The phototoxicities of the Ru-bqp-ester, Ru-bqp-R8, and Ru-bqp-MPP were next compared across the three cell line monolayers. Two identical plates, a dark control and phototoxicity plate, were prepared and incubated with varying concentrations of Ru-bqp-ester, Ru-bqp-R8, and Ru-bqp-MPP for 30 min or 2 h depending on the cell line. The test solutions were then decanted, and the wells replaced with phenol red free media. The phototoxicity plate was irradiated using a 470 nm LED, corresponding to which is close to the absorbance maximum associated with the ^1MLCT of the complex, total irradiation dose 17 ± 1.64 J/cm^2 (constituting 2 h at 2.37 ± 0.23 mW/cm^2) at 37 °C, and the control plate was maintained under the same conditions in the dark. The cells were then incubated for a further 21.5 h at 37 °C with 5% CO2 to allow for cell recovery. An alamar blue assay was performed to assess cell viability.
To overcome potential efflux of the complexes from the A549 cells, a shorter complex incubation time of 30 min was selected prior to irradiation.

[8] = system: CHO cells; test: Phototoxicity with dark control plate, 470 nm LED, alamar blue; type: cell-based, Chinese hamster; conditions: 30 min incubation, 470 nm LED 17 J/cm^2, alamar blue, triplicate, read-out: IC50 under irradiation
Procedure: as §3
The test solutions were then decanted, and the wells replaced with phenol red free media. The phototoxicity plate was irradiated using a 470 nm LED, corresponding to which is close to the absorbance maximum associated with the ^1MLCT of the complex, total irradiation dose 17 ± 1.64 J/cm^2 (constituting 2 h at 2.37 ± 0.23 mW/cm^2) at 37 °C, and the control plate was maintained under the same conditions in the dark. […]
Similar to the phototoxicity studies in A549 cells, an incubation time of 30 min was selected for CHO cells to allow uptake. […] Cell viability was determined relative to untreated control wells using an alamar blue assay. […]

[9] = system: HPAC 2D cell monolayers; type: cell-based, human
Procedure: as §3
The test solutions were then decanted, and the wells replaced with phenol red free media. The phototoxicity plate was irradiated using a 470 nm LED, corresponding to which is close to the absorbance maximum associated with the ^1MLCT of the complex, total irradiation dose 17 ± 1.64 J/cm^2 (constituting 2 h at 2.37 ± 0.23 mW/cm^2) at 37 °C, and the control plate was maintained under the same conditions in the dark. The cells were then incubated for a further 21.5 h at 37 °C with 5% CO2 to allow for cell recovery. An alamar blue assay was performed to assess cell viability.
The HPAC cells required a longer incubation period of 2 h prior to irradiation to account for slower uptake. […] In summary, Ru-bqp-ester is minimally toxic in the dark but highly phototoxic in all test cells when activated using a 470 nm LED. Furthermore, the peptide conjugates Ru-bqp-R8 and Ru-bqp-MPP show phototoxic potential in cancerous cell lines A549 and HPAC selected for analysis. The increased uptake of the MPP peptide conjugate into the mitochondria, as determined by our co-localization studies, could be linked to the higher phototoxicity of the complex in A549 and HPAC cells and also the increased dark toxicity in HPAC and CHO cell monolayers in comparison to the parent and R8 peptide conjugate.

[10] = system: HPAC multicellular spheroids (3D); type: cell-based, human; conditions: 24 h treatment, 23.5 h recovery, CellTiter-Glo 3D, average of three plates
Procedure: Spheroid viability was evaluated using a CellTiter-Glo 3D assay. Although the alamar blue assay is a robust and reliable option for 2D cell viability, the CellTiter-Glo 3D assay is specifically designed to penetrate deeper into 3D cell culture and thus offers better specificity for these studies. Cells were seeded in round-bottom 96 well plates at 2 × 10^4 cells per well and grown for 96 h. The cells were treated for 24 h and a media change performed. A 470 nm LED was used to irradiate the spheroids at 4.27 ± 0.41 J/cm^2 (30 min at 2.37 ± 0.23 mW/cm^2) and a dark control plate was performed simultaneously. Irradiation conditions were tested on untreated spheroids to confirm whether viability remained unaffected at this irradiation dosage before any experiments were performed. The spheroids were allowed to recover and the CellTiter-Glo 3D assay was performed to determine cell viability as per the manufacturer’s protocol. Percentage cell viability was determined relative to the untreated control spheroids.
The dark and phototoxicity of the parent and peptide conjugates were also assessed in HPAC spheroids. […] Cell viability was determined using the CellTiter-Glo 3D luminescence-based assay, and viability assays were performed in triplicate. […] As in the 2D alamar blue assay protocol, % viability is calculated relative to untreated control spheroids.

[11] = Photophysical measurements (luminescence lifetime, quantum yield); type: physicochemical
Procedure: Absorbance measurements of the Ru(II) complexes at 20 μM were performed using a Jasco V670 spectrophotometer. Emission spectra were collected using a Varian Cary Eclipse fluorescence spectrophotometer and luminescent lifetime measurements were performed on a PicoQuant FluoTime 100 FLS TCSPC system using a 450 nm pulsed laser and an external pulse generator. Lifetime decay curves were analyzed using the PicoQuant Fluofit software with fitting criteria; 0.9 < X^2 < 1.1. For O2 sensitivity studies, the emission spectrum and luminescent lifetime of each complex (10 μM) were recorded under O2 saturation, and after N2 purge for 20 min. All measurements were performed in triplicate and reported as the mean ± SD.

[12] = design: method as in doi:10.3390/organoids1020012, PMID 35485712; conditions: previously published, 298 K, deaerated MeOH/EtOH solution; printed in the MeCN row; cited from earlier work
[13] = system: HPAC spheroids; test: Uptake in spheroids, confocal imaging; conditions: 24 h incubation
Procedure: HPAC cells were seeded in U-bottom 96 well-plates pre-treated with 0.5% polyHEMA [poly(2-hydroxyethyl methacrylate), Sigma in 95% ethanol] at 2 × 10^4 cells per well. The plate was then centrifuged at 700 rpm at 37 °C using a BMG Labtech ClarioStar (plus) plate reader for 10 min. The cells were incubated for 96 h to allow spheroid formation before any dye was added for imaging studies. Ru-bqp-ester, Ru-bqp-MPP, and Ru-bqp-R8 were added to the spheroids at 30 and 100 μM in the 96 well plates and after 24 h incubation, the spheroids were carefully transferred to an 8-chamber slide (ibidi), with a single spheroid per chamber, and directly imaged using a Leica TCS DMi8 confocal microscope (40× oil immersion objective). Hoechst 33342 nuclear stain (1 μg/mL) was added to the spheroids for 45 min as a contrast agent and excited using a 405 nm laser with emission collected between 425 and 475 nm. The Ru(II) complexes were excited using a white light laser at 490 nm and emission collected between 580 and 730 nm. Spheroid images were acquired using z-scanning across the z-axis of the samples. On average, 40–50 images were acquired per z-scan and used to obtain 3D spheroid reconstructions using Leica Application Suite X (LAS X) software.
Confocal fluorescence imaging was performed to determine if the cellular uptake observed in 2D culture extends to 3D models. […]

For `NCC(=O)CCC(=O)O` [ALA, aminolevulinic acid], the PI [1] is given as over 18 and the PI [2] is given as 4.2.
For Photofrin, the PI [3] is listed as over 10.
For [Ru(bqp)(bqpCOOEt)]^2+ [Ru-bqp-ester], the IC50 [4] was over 100 µM, the IC50 [5] was over 100 µM and the IC50 [6] was over 100 µM. The “cell viability, A549 dark control” value ([7]; dark control plate, 30 min incubation, up to 100 μM, not graphed) was over 80%, the “A549 cells dead following photoirradiation” value ([7]; dose of <5 μM, 30 min incubation, 470 nm LED 17 J/cm^2) was “More than 70%” and the IC50 ([7]; read-out: IC50 under irradiation, A549, 30 min incubation, 470 nm LED 17 ± 1.64 J/cm^2 (2 h), 21.5 h recovery, alamar blue) was under 5 µM. For the same molecule, the IC50 [8] was under 5 µM, the IC50 ([9]; 2 h incubation, 470 nm LED 17 J/cm^2, read-out: IC50 under irradiation, HPAC cells) was 0.77 ± 0.11 µM and the IC50 ([9]; dark control plate, 2 h incubation then recovery in the dark, alamar blue, average of three plates, triplicate per plate, read-out: IC50 dark, HPAC 2D cell monolayers) was 585 ± 6.28 µM. The “PI (phototoxic index), HPAC 2D cell monolayers” value ([9]; ratio of dark to light IC50 values, 17 ± 1.64 J/cm^2 at 470 nm) was 760, the IC50 ([10]; 470 nm LED 4.27 ± 0.41 J/cm^2 (30 min), read-out: IC50 light, HPAC multicellular spheroids (3D)) was over 100 µM and the IC50 ([10]; dark control plate, read-out: IC50 dark, HPAC multicellular spheroids (3D)) was over 100 µM. The τlum aerated ([11]; MeCN, mean ± SD of triplicate) was 384 ± 1 ns, the τlum aerated ([11]; PBS (pH 7.4), 450 nm pulsed laser, TCSPC, mean ± SD of triplicate) was 782 ± 18 ns and the τlum deaerated ([11]; PBS (pH 7.4), deaerated (N2 purge 20 min), mean ± SD of triplicate) was 1320 ± 20 ns. For the same molecule, the “emission lifetime on deaeration” value ([11]; PBS buffer (pH 7.4), deaerated) was “over 1.3 μs”, the emission quantum yield Φ [12] was 4% and the τlum deaerated [12] was 4300 ^a ns. The “uptake in HPAC spheroids” value ([13]; 30 μM) was “some uptake” and the “uptake in HPAC spheroids” value ([13]; 100 μM) was “complete internalization”.

Source: article PMC10428208, “Phototoxicity of Tridentate Ru(II) Polypyridyl Complex with Expanded Bite Angles toward Mammalian Cells and Multicellular Tumor Spheroids” (Inorganic Chemistry, 2023)
